Measured values: patent publication US20050038058A1, “Novel compounds and methods for therapy” (Institute of Organic Chemistry and Biochemistry, priority 2001, published 2005)
Converted amounts (≈) assume the structure as drawn. Like-named read-outs stand apart in the source and are kept apart here. Marks after values point to notes of the source that are not given here.

Columns and labels:
HIV-1/L1S = type: cell-based; conditions: measured against the laboratory HIV-1/IIIB strain in CEM cell cultures
Text: (§1) Viruses. The origins of MSV, HIV type 1 (HIV-1) (strain IIIB and Ba-L), HIV-2 (strain ROD) and FIV (strain Petaluma) have been described previously (Balzarini et al., AIDS 5: 21-28, 1991; De Clercq et al., Proc. Soc. Exp. Biol. Med. 137:590-594, 1971; Egberink et al., Proc. Natl. Acad. Sci. 87:3087-3091, 1990; Hartmann et al., Antiviral Chem. Chemother. 5:13-19, 1994; Popovic et al., Science 224:497-500, 1984). HIV-1(IIIB) and HIV-2(ROD) stocks were obtained from supernatants of virus-infected MT-4 cell cultures. HIV-1BaL was expanded in human primary M/M, whose supernatants were collected, filtered and stored at −80° C. before use. Characteristics of viral stocks used for this study were 2.1×10^8 HIV-RNA genomes/ml (corresponding to 35 ng of p24 antigen) and 5,000 tissue culture infectious doses 50% per ml (TCID50/ml) as assessed by virus titration in other primary M/M cultures. The isolation and characterization of the clinical HIV-1 isolates L1S, L6S and L6S/PMEA has been reported (Thormar et al., Proc. Natl. Acad. Sci. USA 93:3283-3287, 1995; Van Laethem et al., AIDS 15:553-561, 2001). […] HIV-1/L6S/PMEA is the clinical isolate HIV-1/L6S that has been isolated after culturing the virus for 11 passages in the presence of increasing concentrations of PMEA (adefovir).
(§2) In vitro antiviral assays. The activity against HIV-1- and HIV-2-induced cytopathicity was examined in MT-4 cell cultures at day 5 post infection and based on the determination of cell viability by trypan blue dye staining or in CEM cell cultures at day 4 to 5 post infection and based on the microscopical examination of virus-induced giant cell formation. HIV-1 and HIV-2 were added at 100 CCID50 to the cell cultures.

HIV-1/L6S/PMEA = type: cell-based; conditions: measured against the laboratory HIV-1/IIIB strain in CEM cell cultures
Text: as §1, §2

HIV-1/L6S = type: cell-based; conditions: measured against the laboratory HIV-1/IIIB strain in CEM cell cultures
Text: as §1, §2

MSV [1] = assay: MSV-induced transformation of murine embryo fibroblast C3H/3T3 cell cultures; type: cell-based; conditions: Mus musculus
Procedure: The inhibitory effect of the test compounds on MSV-induced transformation of murine embryo fibroblast C3H/3T3 cell cultures was examined microscopically at day 6 post infection. MSV was added at 75 focus-forming units to the cell cultures. The detailed procedures for the antiretroviral evaluations has been described in detail before (Balzarini et al., AIDS 5:21-28, 1991; Balzarini et al., Antimicrob. Agents Chemother. 37:332-338, 1993; De Clercq et al., Proc. Soc. Exp. Biol. Med. 137:590-594, 1971).

HIV-2(ROD) [2] = assay: HIV-2(ROD)-induced cytopathicity in MT-4 cell cultures; type: cell-based; conditions: Human immunodeficiency virus 2, MT4, read-out: EC50 HIV-2 (ROD) (MT-4)
Text: as §1, §2

[3] = MT-4 cell toxicity (trypan blue exclusion); type: cell-based; conditions: human, MT-4 cells; reduction of cell viability; Table 2
Procedure: Cytostatic and antimetabolic effect of acyclic nucleoside phosphonates in vitro. The assays to examine the inhibition of CEM cell growth by the test compounds have been described previously (Balzarini et al., AIDS 5:21-28, 1991). The 50% cytostatic concentration (CC50) was defined as the concentration of compound that reduced the number of living cells by 50% . To measure MT-4 cell toxicity of the test compounds, 5×10^4 MT-4 cells were incubated in the wells of 96-well microplates in the presence or absence of different concentrations of the test compounds for 5 days at 37° C. The CC50 was then calculated from the number of living cells counted under a microscope by the trypan blue exclusion method.

MSV [4] = type: in vivo; conditions: for Number of Mice not Developing a Tumor (percent): intraperitoneal, 5 daily doses, newborn NMRI mice
CEM cells = assay: Incorporation of [3H]thymidine, [3H]uridine and [3H]leucine into CEM cell material; type: cell-based; conditions: 200 μg/mL; 12 hour incubation period
Procedure: The incorporation of [methyl-^3H]thymidine, [^3H]uridine and [^3H]leucine into the methanol-insoluble CEM cell fraction was also measured in microplates. To each well were added 10^5 CEM cells, 5.9 pmol (0.25 μCi) of [methyl-^3H]thymidine, 38 pmol (1.0 μCi) of [^3H]uridine and 19 pmol (1.0 μCi) [4,5-^3H]leucine, and a given amount of the test compound. […] At the end of this incubation period, the contents of the wells (200 μl) were brought onto 25-mm glass fiber filters (type A/G; Gelman Instrument Co., Ann Arbor, Mich.) mounted on a Millipore 3025 sampling manifold apparatus. The filters were washed twice with cold PBS (phosphate-buffered saline), twice with cold 10% trichloroacetic acid, twice with cold 5% trichloroacetic acid, once with cold ethanol, and once with cold ether. The filters were then allowed to dry for 10 min at 60° C. and assayed for radioactivity in a toluene-based scintillant.

Toxicity in CrFK cells = type: cell-based, feline; conditions: cat, CrFK cells; Table 2
HIV-1(IIIB) [5] = assay: HIV-1(IIIB)-induced cytopathicity in MT-4 cell cultures; type: cell-based; conditions: Human immunodeficiency virus 1, IIIB, MT4; Table 2
Text: as §1, §2

[6] = test system: HIV-1(IIIB) strains containing L100I, K103N, Y181C and Y188H mutations in the RT; assay: HIV-1(IIIB) strains with NNRTI-specific RT mutations in CEM cell cultures; type: cell-based; conditions: data not shown
Procedure: as §2

HIV-1(IIIB) [7] = assay: HIV-1(IIIB) p24 antigen production in PBL (PHA-stimulated PBMC); type: cell-based; conditions: Human immunodeficiency virus 1, IIIB, PBMC
Procedure: Peripheral blood mononuclear cells (PBMC) from healthy donors were isolated by density centrifugation (Lymphoprep; Nycomed Pharma, AS Diagnostics, Oslo, Norway) and stimulated with phytohemagglutin (PHA) (Sigma Chemical Co., Bornem, Belgium) for 3 days. The activated cells (PHA-stimulated blasts) were washed with PBS and viral infections were done as described by the AIDS clinical trial group protocols. Briefly, PBMCs (2×10^5/200 well) were plated in the presence of serial dilutions of the test compound and were infected with HIV stocks at 1000 CCID50 per mL. At day 4 post-infection, 125 μl of the supernatant of the infected cultures was removed and replaced with 150 μl of fresh medium containing the test compounds at the appropriate concentrations. At 7 days after plating the cells, p24 antigen was detected in the culture supernatant by an enzyme-linked immunosorbent assay (NEN, Paris, France).

HIV-2(ROD) [8] = assay: HIV-2(ROD)-induced cytopathicity in CEM cell cultures; type: cell-based; conditions: Human immunodeficiency virus 2, CCRF-CEM, read-out: EC50 HIV-2 (ROD) (CEM)
Text: as §1, §2

## Nc1cc(OCCOCP(=O)(O)O)nc(N)n1 [Compound 1, 2,4-diamino-6-[2-(phosphonomethoxy)ethoxy]pyrimidine]
HIV-1/L1S
  -Fold Resistance HIV-1/L1S: 0.8 fold
HIV-1/L6S/PMEA
  -Fold Resistance HIV-1/L6S/PMEA: 3.6 fold
HIV-1/L6S
  -Fold Resistance HIV-1/L6S: 1.5 fold
MSV [1]; C3H, read-out: EC50 against MSV-induced C3H cell transformation
  EC50: 0.05 to 0.15 µg/mL (≈ 0.189 to 0.568 µM)
MSV [1]; MSV-induced C3H cell transformation, Table 2, read-out: EC50 MSV (C3H)
  EC50: 0.16 ± 0.04 µg/mL (≈ 0.606 µM)
HIV-2(ROD) [2]
  EC50: 0.29 µg/mL (≈ 1.1 µM)
[3]
  CC50 at 5 days: 46 ± 7.4 µg/mL (≈ 174 µM)
MSV [4]; 2 mg/kg
  Number of Long-Term Survivors (%) (>30 days): 15%
  Number of Mice not Developing a Tumor (percent): 5%
MSV [4]; 8 mg/kg
  Number of Long-Term Survivors (%) (>30 days): 89%
  Number of Mice not Developing a Tumor (percent): 44%
MSV [4]; 20 mg/kg
  Number of Mice not Developing a Tumor (percent): 80%
MSV [4]; 20 mg/kg, premature death not taken into account
  Number of Long-Term Survivors (%) (>30 days): 100%
MSV [4]; 50 mg/kg
  Number of Mice not Developing a Tumor (percent): 84%
MSV [4]; 50 mg/kg, premature death not taken into account
  Number of Long-Term Survivors (%) (>30 days): 100^b %
MSV [4]; 50 and 20 mg/kg
  Mice protected from tumor formation: At least 80%
CEM cells
  Inhibition of [3H]dThd, [3H]Urd and [3H]leu incorporation into TCA-insoluble CEM cell material (macromolecular synthesis): Neither compounds 1 nor 2, nor compound 11 were inhibitory
Toxicity in CrFK cells
  CC50: 11 µg/mL (≈ 41.6 µM)
HIV-1(IIIB) [5]
  EC50: 0.34 ± 0.03 µg/mL (≈ 1.29 µM)
[6]
  Activity against NNRTI-specific mutant virus strains, in words: retained full activity
HIV-1(IIIB) [7]; p24 antigen production, Table 2, read-out: EC50 HIV-1 (IIIB) (PBL)
  EC50: 0.07 ± 0.02 µg/mL (≈ 0.265 µM)
HIV-1(IIIB) [7]; read-out: EC50 HIV-1(IIIB) in PBL
  EC50: 0.07 µg/mL (≈ 0.265 µM)
HIV-2(ROD) [8]
  EC50: 0.66 ± 0.19 µg/mL (≈ 2.5 µM)
